Patent publication EP0277849A1, “Incorporation of one or more lipophilic, active principles into lipoproteins, lipoproteins obtained and pharmaceutical compositions containing them” (IRE-CELLTARG S.A., priority 1987, dated 1988)

Experiment: Stability of reconstituted LDL in presence of plasma (KBr gradient fractionation)
Assay type: in vitro ADME
Conditions: 1 ml de plasma humain, trois heures à 37° C
Method: Dans un milieu biologique aussi complexe que le plasma, de nombreux constituants peuvent, à priori, inte) ragir avec les LDL rec. CT040013 et provoquer leur déstabilisation ou entraîner une libération du principe actif incorporé. Aussi, une première étude a été entreprise pour essayerde caractériser le comportement des LDL rec. CT040013 lorsque ces dernières sont mises en présence de plasma.
Deux préparations ont été testées : les LDL rec. O.CHOL [^14C] et les LDL rec" CT040013. 500 µl de ces différentes préparations sont incubées avec 1 ml de plasma humain pendant trois heures à 37° C. Au terme de cette incubation, les échantillons sont fractionnés par ultracentrifugation sur gradient discontinu en KBr. Par aspiration, on récupère les fractions correspondantes aux différentes densités, et sur chacune de celle-ci, le cholestérol, les phospholipides, l'oléate de cholestérol [^14C] sont dosés (figure 15). Le profil en cholestérol total et en phospholipides est identique dans les deux gradients. On y distingue trois pics correspondants aux trois classes de lipoprotéines, par ordre décroissant de densité : HDL, LDL, et VLDL.

CCCCCCCC/C=C\CCCCCCCC(=O)N1CCN(c2ccc(OC[C@H]3CO[C@](Cn4ccnc4)(c4ccc(Cl)cc4Cl)O3)cc2)CC1 [KO1]
association à l'albumine: il n'a pas été possible de mettre en évidence une association | relarguage / redistribution de la molécule incorporée en présence de plasma: n'est pas pris en charge par ces protéines de transfert
